Test results as given in patent US20060084135A1, “Compositions for manipulating the lifespan and stress response of cells and organisms” (priority 2003, published 2006).

Experiments:
recombinant human SIRT1 = molecular target: T1, recombinant human SIRT1 (Homo sapiens, UniProt Q96EB6); test: SIRT1 fluorescent deacetylation assay (p53-382 acetylated peptide substrate); assay type: biochemical
T1 sequence (Q96EB6 1-747): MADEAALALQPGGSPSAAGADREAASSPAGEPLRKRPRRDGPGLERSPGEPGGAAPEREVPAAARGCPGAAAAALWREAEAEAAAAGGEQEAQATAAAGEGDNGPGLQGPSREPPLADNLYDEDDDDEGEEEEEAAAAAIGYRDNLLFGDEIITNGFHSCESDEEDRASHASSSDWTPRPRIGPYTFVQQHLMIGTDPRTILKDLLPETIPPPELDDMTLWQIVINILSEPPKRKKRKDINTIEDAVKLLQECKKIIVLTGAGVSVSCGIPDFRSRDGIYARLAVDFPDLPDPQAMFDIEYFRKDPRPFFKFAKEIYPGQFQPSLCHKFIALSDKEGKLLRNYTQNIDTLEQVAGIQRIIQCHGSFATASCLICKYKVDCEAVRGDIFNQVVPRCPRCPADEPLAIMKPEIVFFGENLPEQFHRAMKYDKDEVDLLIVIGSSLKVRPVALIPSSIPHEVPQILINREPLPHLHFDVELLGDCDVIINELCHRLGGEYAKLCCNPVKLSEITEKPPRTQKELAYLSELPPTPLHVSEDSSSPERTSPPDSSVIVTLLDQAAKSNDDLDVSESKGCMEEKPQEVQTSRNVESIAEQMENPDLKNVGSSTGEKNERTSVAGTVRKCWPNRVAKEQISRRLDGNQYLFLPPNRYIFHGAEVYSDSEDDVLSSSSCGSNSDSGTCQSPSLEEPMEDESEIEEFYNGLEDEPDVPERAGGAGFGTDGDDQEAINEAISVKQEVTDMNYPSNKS

recombinant GST-Sir2 = recombinant GST-Sir2 (Saccharomyces cerevisiae, UniProt P06700); test: Sir2 deacetylation rate assay; assay type: biochemical, S. cerevisiae; settings: in vitro dose-response
Sequence of recombinant GST-Sir2 (P06700 whole entry): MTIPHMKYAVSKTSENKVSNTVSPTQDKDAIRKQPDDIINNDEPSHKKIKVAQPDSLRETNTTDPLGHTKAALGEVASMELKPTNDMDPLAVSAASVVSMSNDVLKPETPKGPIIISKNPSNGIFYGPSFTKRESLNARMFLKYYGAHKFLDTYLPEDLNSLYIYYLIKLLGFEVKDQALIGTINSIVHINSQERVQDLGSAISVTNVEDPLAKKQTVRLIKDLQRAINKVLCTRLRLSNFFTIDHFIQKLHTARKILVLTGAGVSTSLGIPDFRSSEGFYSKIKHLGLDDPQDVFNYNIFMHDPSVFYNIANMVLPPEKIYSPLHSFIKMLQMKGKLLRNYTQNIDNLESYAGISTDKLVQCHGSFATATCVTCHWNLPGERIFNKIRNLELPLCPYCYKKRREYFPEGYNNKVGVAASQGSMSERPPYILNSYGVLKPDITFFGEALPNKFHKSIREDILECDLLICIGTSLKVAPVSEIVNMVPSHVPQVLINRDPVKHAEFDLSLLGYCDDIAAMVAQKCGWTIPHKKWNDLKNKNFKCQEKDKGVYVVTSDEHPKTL
Experimental: Average lifespan was determined for wild type untreated (□), quercetin (◯) and piceatannol (●).
To investigate whether these compounds could stimulate sirtuins in vivo, we utilized S. cerevisiae, an organism in which the upstream regulators and downstream targets of Sir2 are relatively well understood.
His6-tagged recombinant SIRT1 and GST-tagged recombinant Sir2 were prepared as described by (Bitterman et al. J Biol Chem 277, 45099-107. (2002). From 0.1 to 1 μg of SIRT1 and 1.5 μg of Sir2 were used per deacetylation assay (in 50 μl total reaction). SIRT1 assays and certain of those for Sir2 employed the p53-382 acetylated substrate (‘Fluor de Lys-SIRT1′, BIOMOL) rather than FdL.
Themed compound libraries (BIOMOL) were used for primary and secondary screening. […] For water soluble compounds and negative controls, 1% v/v DMSO was added to the assay. […] HeLa cells were grown and the cellular deacetylation assays were performed and read, as above, but in full-volume 96-well microplates (Corning Costar 3595). […] Calculation of net fluorescence increases included subtraction of a blank value, which in the case of Sir2 was obtained by omitting the enzyme from the reaction and in the case of SIRT1 by adding an inhibitor (200 μM suramin or 1 mM nicotinamide) to the reaction prior to the acetylated substrate. […]

[1] = tested on: rDNA silencing (RDN1::URA3); test: Ribosomal DNA silencing assay (URA3 reporter); assay type: cell-based, S. cerevisiae
Experimental: Yeast lifespans were determined as in FIG. 2. […] Frequencies were determined by loss of the ADE2 marker gene from the rDNA locus (RDN1). […] Pre-treated cells (RDN1::URA3) were harvested and spotted as 10-fold serial dilutions on either SC or SC with 5-fluororotic acid (5-FOA). In this assay, increased rDNA silencing results in increased survival on 5-FOA medium.
Ribosomal DNA silencing assays using the URA3 reporters were performed as previously described by Bitterman et al. (J Biol Chem 277, 45099-107 (2002)). Ribosomal DNA recombination frequencies were determined by plating W303AR cells (Sinclair, D. A. and Guarente, L. Cell 91, 1033-42 (1997)) on YPD medium with low adenine/histidine and counting the fraction of half-red sectored colonies using Bio-Rad Quantity One software as described by Anderson et al. (J Biol Chem 277, 18881-90. (2002)). At least 6000 cells were analyzed per experiment and all experiments were performed in triplicate. All strains were pre-grown for 15 hours with the relevant compound prior to plating.

[2] = tested on: lysine 382 of p53 in U2OS osteosarcoma cells; test: p53 Ac-K382 Western blot after UV radiation in U2OS cells; assay type: cell-based, human
[3] = tested on: lysine 382 of p53 in HEK 293 cells; test: p53 Ac-K382 Western blot in HEK 293 cells expressing dominant negative SIRT1-H363Y; assay type: cell-based, human; settings: low concentrations of resveratrol
C. elegans (strain N2) = test: C. elegans lifespan; assay type: in vivo; settings: 100 μM, 50 worms strain N2 (control 5 alive)
Experimental: Thus, the presence of resveratrol in the growth media of C. elegans extends their lifespan.
The effect of some of these compounds on lifespan was determined in yeast, C. elegans and D. melanogaster, as described above.

[4] = 25 μM NAD+, 25 μM p53-382 acetylated peptide

SMILES: Oc1ccc(/C=C/c2cc(O)cc(O)c2)cc1 [Resveratrol, 3,5,4′-Trihydroxy-trans-stilbene]
- Apparent Km for NAD+ and acetylated substrate (recombinant human SIRT1; 5 μM resveratrol in the presence of 50 μM nicotinamide): raised
- Concentration at which the activating effect doubled the rate (recombinant human SIRT1; [4]): ~11 µM
- Concentration at which the activating effect was essentially saturated (recombinant human SIRT1; [4]): ~100 µM
- Effect on the two Vmax determinations (recombinant human SIRT1; 100 μM resveratrol): no significant effect
- Lowering of Km for NAD+ (recombinant human SIRT1; 100 μM resveratrol, 1 mM p53-382 acetylated peptide): over 5 fold
- Decrease of acetylated peptide Km (recombinant human SIRT1; 100 μM resveratrol, 3 mM NAD+): 35 fold
- Km for both NAD+ and acetylated peptide (recombinant human SIRT1; 20 and 100 μM resveratrol in the presence of 50 μM nicotinamide): lowers
- Vmax, NAD+ varied (recombinant human SIRT1; +100 μM resveratrol, 1 mM p53-382 acetylated peptide (control 1863)): 1749 AFU/min.
- Vmax, p53-382 acetylated peptide varied (recombinant human SIRT1; +100 μM resveratrol, 3 mM NAD+ (control 1107)): 926 AFU/min.
- Concentrations at which inhibition of Sir2 was seen (recombinant GST-Sir2): > 100 µM
- Optimum concentration of activator for Sir2 stimulation (recombinant GST-Sir2): 2 to 5 µM
- Effect on rDNA silencing [1]: only minor effects
- Level of Ac-K382 of p53 compared to untreated cells ([2]; 0.5 μM resveratrol, 4 hours pre-treatment, UV radiation): marked decrease
- Level of Ac-K382 of p53 ([2]; higher concentrations of resveratrol (>50 μM)): reversed
- Ability to promote deacetylation of p53 in cells expressing dominant-negative SIRT1 (H363Y) [3]: diminished
- Worms alive on day 17 (C. elegans (strain N2)): 17 worms
